From patent EP2727596A1, “eEF2/eEF2K as therapeutic target for treating TNF-alpha-related diseases” (Fundación Centro Nacional de Investigaciones …, priority 2012, dated 2014)
Entries after “also recorded” stand apart in the source; their conditions may differ.

Columns and labels:
TNFα [1] = settings: healthy males; cited from earlier work
[2] = clinical use; cited from earlier work
D-Gal+LPS-treated mice = assay: D-Gal+LPS-induced liver damage (hepatitis) in mice treated with p38 inhibitors; format: in vivo; settings: WT mice, inhibitor i.p. 15mg/kg prior to LPS injection
From the text: (§1) MKK3 and MKK6 are the main regulators of the α, β, γ and δ p38MAPK isoforms. […] The specific action of these inhibitors on MAPK pathway activity was firstly examined. […] No changes in ERK or JNK phosphorylation were observed.
(§2) Mkk3^-/- (B6.129-Map2k3^tm1Flv), Mkk6^-l- (B6.129-Map2k6^tm1Flv) were as previously described. p38γ (B6.129-Mapk12^tm1) and p38δ (B6.129-Mapk13^tm1) mice were crossed with B6.129P2-Lyz2tm1(cre)Ifo/J and back-crossed for ten generations to the C57BL/6J background (The Jackson Labs) and genotyped by PCR analysis of genomic DNA. Radiation chimeras were generated by exposing recipient mice to two doses of ionizing radiation ([…]) and reconstituting them with 2x10^7 donor bone marrow cells by injection into the tail vein. […] Specificity of the depletion of cell populations was determined by flow cytometry of blood samples collected during the experiment.
Serum activities of alanine transaminase (ALT) and aspartate aminotrasferase (AST) were measured using the ALT and AST Reagent Kit (Biosystems Reagents) with a Benchmark Plus Microplate Spectrophotometer. Serum concentrations of cytokines were measured by multiplexed ELISA with a Luminex 200 analyzer (Millipore). […]

TNFα [3] = assay: serum TNFα in D-Gal+LPS-treated mice (inhibitors); format: in vivo
From the text: as §1, §2
(§3) Serum activities of alanine transaminase (ALT) and aspartate aminotrasferase (AST) were measured using the ALT and AST Reagent Kit (Biosystems Reagents) with a Benchmark Plus Microplate Spectrophotometer. Serum concentrations of cytokines were measured by multiplexed ELISA with a Luminex 200 analyzer (Millipore).

ERK = assay: MAPK pathway activity: ERK phosphorylation (immunoblot); format: in vivo; settings: mice treated prior to LPS injection
Procedure: (§4) MKK3 and MKK6 are the main regulators of the α, β, γ and δ p38MAPK isoforms.
(§5) Tissue extracts were prepared using Triton lysis buffer (20 mM Tris [pH 7.4], 1% Triton X-100, 10% glycerol, 137mM NaCl, 2mM EDTA, 25mM β-glycerophosphate, 1 mM sodium orthovanadate, 1mM phenylmethylsulfonyl fluoride, and 10µg/mL aprotinin and leupeptin). Extracts (30µg protein) and immunoprecipitates (prepared from 2 mg protein) were examined by protein immunoblot analysis with antibodies to ERK1/2, phospho-ERK1/2, phospho-MKK3/6, p38α MAPK, phospho-p38, phospho-hsp27, phospho-JNK1/2, JNK1/2, caspase 3, cleaved caspase 3, cleaved PARP and phospho-eEF2 kinase (Ser366), all from Cell Signaling and MKK3 (Pharmingen), MKK6 (Stressgen), and GAPDH and eEF2 (Santa Cruz Biotechnology). The anti-p38γ and p38δ antibodies were raised against the peptides which correspond to the C termini of the proteins.

p38α/β = assay: MAPK pathway activity: phosphorylation of p38α substrate HSP27 (immunoblot); format: in vivo; settings: mice treated prior to LPS injection
Procedure: as §4, §5

[4] = test system: association of eEF2 with Tnfα mRNA; assay: RNA-immunoprecipitation assay: eEF2 binding to Tnfα mRNA in RAW 264.7 cells; format: cell-based, Mouse; settings: RAW 264.7 cells pretreated 10µM for 30 min before LPS (60min)
Procedure: (A-D) BM-derived macrophages from p38γ/δ^Lyz-KO and Lyzs-cre mice were treated with LPS (10µg/ml) or TNFα (20ng/ml). Data were analyzed by two-way ANOVA coupled to Bonferroni post-tests. • (A) ELISA of TNFα and IL-6 in supernatants. • (B) qRT-PCR of Tnfα and Il-6 mRNA normalized to Gapdh, • (C) Immunoblot of BM-derived macrophage (BMM) lysates. • (D) Flow cytometry of phospho-p38 in BM-derived macrophages stimulated with LPS and TNFα for 30 min. Intracellular phospho-p38 is depicted in blue; red corresponds to the isotype control. • (D-I) Cells were treated with LPS. Tnfα mRNA was detected by qRT-PCR in immunoprecipitates (1mg protein) obtained with anti-eEF2. mRNA amounts are expressed relative to the amount detected in control IgG immunoprecipitates. Data were analyzed by Student's t-test unless otherwise indicated. • (E) Tnfα mRNA in RAW 264.7 cell immunoprecipitates. • (F) Tnfα, Hif1α, and Il-6 mRNA in RAW 264.7 cell immunoprecipitates. […] Tnfα mRNA was measured in immunoprecipitates. • (G-H) Tnfα mRNA in immunoprecipitates of BM-derived macrophages from Lyzs-cre and 38γ/δ^Lyz-KO mice (G) or WT or ΔMKK3/6 mice (H) after stimulation (60min). eEF2 in immunoprecipitates was detected by immunoblot (upper panel).
To assess whether eEF2 controls TNFα elongation it was examined the binding of eEF2 to Tnfα mRNA in immunoprecipitates of mRNA-eEF2 complexes in RAW cells. […]

IL6 = assay: serum IL6 in D-Gal+LPS-treated mice (inhibitors); format: in vivo
From the text: as §1, §2, §3

JNK = assay: MAPK pathway activity: JNK phosphorylation (immunoblot); format: in vivo; settings: mice treated prior to LPS injection
Procedure: as §4, §5

p38δ = biological target: T1, p38δ (Mus musculus, UniProt Q9Z1B7); settings: mice treated prior to LPS injection
T1 sequence (Q9Z1B7 1-366): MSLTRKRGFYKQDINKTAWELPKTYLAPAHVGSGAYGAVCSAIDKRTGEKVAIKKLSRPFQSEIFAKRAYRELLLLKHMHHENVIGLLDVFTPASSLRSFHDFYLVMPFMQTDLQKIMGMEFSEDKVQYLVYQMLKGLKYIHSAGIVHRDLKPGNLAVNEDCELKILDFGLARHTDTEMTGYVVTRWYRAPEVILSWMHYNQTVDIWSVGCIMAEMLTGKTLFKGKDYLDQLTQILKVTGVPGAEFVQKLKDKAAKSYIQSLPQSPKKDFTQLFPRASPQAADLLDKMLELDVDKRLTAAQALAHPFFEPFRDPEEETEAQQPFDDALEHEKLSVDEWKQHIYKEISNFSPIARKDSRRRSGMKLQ
Procedure: as §4, §5

Row | Compound | inhibition of ex-vivo LPS-induced TNFα (TNFα [1]) [%] | liver enzyme elevations [2] | D-Gal+LPS-induced liver damage (hemorrhage, apoptosis and necrosis) (D-Gal+LPS-treated mice) | serum levels of TNFα (TNFα [3]) | ERK phosphorylation (ERK) | inhibition of p38α/β (loss of phosphorylation of p38α substrate HSP27) (p38α/β) | association of eEF2 with Tnfα mRNA [4] | serum levels of IL6 (IL6) | JNK phosphorylation (JNK) | inhibition of p38δ activation (suppression of phosphorylation of its substrate eEF2K) (p38δ)
1 | Cn1c(NC[C@@H](N)Cc2ccccc2)nc(-c2ccncc2)c(-c2ccc3ccccc3c2)c1=O [AMG 548] | > 85 | random liver enzyme elevations | – | – | – | – | – | – | – | –
2 | Cc1ccc(-n2nc(C(C)(C)C)cc2NC(=O)Nc2ccc(OCCN3CCOCC3)c3ccccc23)cc1 [BIRB796] | – | some liver enzyme elevations | improves liver condition; also recorded: protected | reduced | No changes | efficiently inhibited | abolished | reduced | No changes | –
3 | C[S+]([O-])c1ccc(-c2nc(-c3ccncc3)c(-c3ccc(F)cc3)[nH]2)cc1 (stereo not drawn) [SB203580] | – | – | intensifies; also recorded: exacerbated | – | No changes | efficiently inhibited | – | – | No changes | only BIRB796 was able to inhibit
